Laboratory results: patent publication US12521375B2, “Pharmaceutical composition for treating fatty liver disease” (Shionogi & Co., Ltd., priority 2020, dated 2026)
Read-outs that look alike come from different tables or passages of the source.

Assays:
recombinant human ACC2 = recombinant human ACC2 (Homo sapiens (Human), UniProt O00763); assay: Measurement of inhibitory activity of human ACC2; assay type: biochemical; conditions: read-out: IC50 hACC2
Excerpt: A cDNA encoding human ACC2 protein (27 amino acid residues to 2458 amino acid residues from the N-terminus) was cloned from a human kidney cDNA library (Clontech Laboratories, Inc.), a His-tag sequence was introduced at the 5′ end, and then inserted into pFastBac1 (Invitrogen). A recombinant baculovirus was produced in accordance with the protocol for a Bac-to-Bac baculovirus expression system (Invitrogen), and Sf-9 cells were infected therewith to express human ACC2 protein. The recovered cells were crushed, filtered through a filter, and then subjected to Ni affinity chromatography and anion exchange chromatography. Fractions containing human ACC2 protein were collected to obtain recombinant human ACC2.
The recombinant human ACC1 and the recombinant human ACC2 obtained from the above Preparation Examples were preincubated in an assay buffer (50 mM HEPES-KOH (pH 7.4), 10 mM magnesium chloride, 6 to 10 mM potassium citrate, 4 mM reduced glutathione, and 1.5 mg/ml bovine serum albumin) for 1 hour. […] After incubation, the enzymatic reaction was stopped by addition of EDTA, and then the compound was co-crystallized with an α-cyano-4-hydroxy cinnamic acid (CHCA) matrix on a MALDI target plate, and measurement was performed in a reflector negative mode using a matrix-assisted laser desorption ionization-time-of-flight mass spectrometer (MALDI-TOF MS). Deprotonated ions of the substrate acetyl-CoA (AcCoA) and the reaction product malonyl-CoA (MalCoA) were detected, and the intensity of each signal was used to calculate a conversion rate to malonyl-CoA […], i.e., intensity of [MalCoA-H]-/(intensity of [MalCoA-H]-+intensity of [AcCoA-H]-). […] The potassium citrate concentration in the assay buffer, the potassium bicarbonate concentration in the substrate solution, and the incubation time were adjusted within the above concentrations or reaction times for each lot of the enzyme to be used.

recombinant human ACC1 = recombinant human ACC1 (Homo sapiens (Human), UniProt Q13085); assay: Measurement of inhibitory activity of human ACC1; assay type: biochemical; conditions: read-out: IC50 hACC1
Excerpt: A cDNA encoding human ACC1 protein (1 amino acid residue to 2346 amino acid residues from the N-terminus) was cloned from a human liver cDNA library (BioChain Institute Inc.), myc tag and His-tag sequences were introduced at the 3′ end, and then inserted into pIEXBAC3 (Novagen). A recombinant baculovirus was produced in accordance with the protocol for FlashBACGOLD (Oxford Expression Technologies Ltd.), and Sf-9 cells were infected therewith to express human ACC1 protein. The recovered cells were crushed, filtered through a filter, and then subjected to Ni affinity chromatography and anion exchange chromatography. Fractions containing human ACC1 protein were collected to obtain recombinant human ACC1.
The recombinant human ACC1 and the recombinant human ACC2 obtained from the above Preparation Examples were preincubated in an assay buffer (50 mM HEPES-KOH (pH 7.4), 10 mM magnesium chloride, 6 to 10 mM potassium citrate, 4 mM reduced glutathione, and 1.5 mg/ml bovine serum albumin) for 1 hour. Then, 5 μL of the pre-incubated enzyme solution and 5 μL of a substrate solution (50 mM HEPES-KOH (pH 7.4), 1 mM ATP, 0.8 mM acetyl-CoA, and 25 to 50 mM potassium bicarbonate) were added to a 384-well microplate into which 0.2 μL of each of solutions of the compound of the present invention (DMSO) had been dispensed, and the mixture was centrifuged and shaken, and then incubated in a wet box at room temperature for 1 to 3 hours. After incubation, the enzymatic reaction was stopped by addition of EDTA, and then the compound was co-crystallized with an α-cyano-4-hydroxy cinnamic acid (CHCA) matrix on a MALDI target plate, and measurement was performed in a reflector negative mode using a matrix-assisted laser desorption ionization-time-of-flight mass spectrometer (MALDI-TOF MS). Deprotonated ions of the substrate acetyl-CoA (AcCoA) and the reaction product malonyl-CoA (MalCoA) were detected, and the intensity of each signal was used to calculate a conversion rate to malonyl-CoA […], i.e., intensity of [MalCoA-H]-/(intensity of [MalCoA-H]-+intensity of [AcCoA-H]-). […] The potassium citrate concentration in the assay buffer, the potassium bicarbonate concentration in the substrate solution, and the incubation time were adjusted within the above concentrations or reaction times for each lot of the enzyme to be used.

[1] = Metabolic stability test (rat); assay type: in vitro ADME
Description: [Worded in the source for another species; this species is reported under the same test.] (§1) Commercially available pooled human liver microsomes were reacted with the compound of the present invention for a given time. A residual rate was calculated by comparison between the reacted sample and the unreacted sample to evaluate a degree at which the compound of the present invention is metabolized in the liver.
(§2) The compound was reacted at 37° C. for 0 minutes or 30 minutes in the presence of 1 mmol/L NADPH in 0.2 mL of a buffer (50 mmol/L Tris-HCl pH 7.4, 150 mmol/L potassium chloride, and 10 mmol/L magnesium chloride) containing 0.5 mg protein/mL of the human liver microsomes (oxidative reaction). After the reaction, 50 μL of the reaction solution was added to 100 μL of a solution of methanol/acetonitrile=1/1 (v/v) and mixed, and the mixture was centrifuged at 3000 rpm for 15 minutes. The compound of the present invention in the centrifuged supernatant was quantified by LC/MS/MS or solid-phase extraction (SPE)/MS. The amount of the compound of the present invention remained after the reaction was calculated with the amount of the compound at 0 minutes of the reaction defined as 100%.

[2] = Metabolic stability test (human); assay type: in vitro ADME; conditions: human liver microsomes, 37° C., 30 minutes, NADPH
Description: as §1, §2

NAFLD patients = conditions: cited from earlier work
healthy subjects = conditions: repeated administration to healthy subjects; cited from earlier work

recombinant human ACC2, sequence (O00763 27-2458): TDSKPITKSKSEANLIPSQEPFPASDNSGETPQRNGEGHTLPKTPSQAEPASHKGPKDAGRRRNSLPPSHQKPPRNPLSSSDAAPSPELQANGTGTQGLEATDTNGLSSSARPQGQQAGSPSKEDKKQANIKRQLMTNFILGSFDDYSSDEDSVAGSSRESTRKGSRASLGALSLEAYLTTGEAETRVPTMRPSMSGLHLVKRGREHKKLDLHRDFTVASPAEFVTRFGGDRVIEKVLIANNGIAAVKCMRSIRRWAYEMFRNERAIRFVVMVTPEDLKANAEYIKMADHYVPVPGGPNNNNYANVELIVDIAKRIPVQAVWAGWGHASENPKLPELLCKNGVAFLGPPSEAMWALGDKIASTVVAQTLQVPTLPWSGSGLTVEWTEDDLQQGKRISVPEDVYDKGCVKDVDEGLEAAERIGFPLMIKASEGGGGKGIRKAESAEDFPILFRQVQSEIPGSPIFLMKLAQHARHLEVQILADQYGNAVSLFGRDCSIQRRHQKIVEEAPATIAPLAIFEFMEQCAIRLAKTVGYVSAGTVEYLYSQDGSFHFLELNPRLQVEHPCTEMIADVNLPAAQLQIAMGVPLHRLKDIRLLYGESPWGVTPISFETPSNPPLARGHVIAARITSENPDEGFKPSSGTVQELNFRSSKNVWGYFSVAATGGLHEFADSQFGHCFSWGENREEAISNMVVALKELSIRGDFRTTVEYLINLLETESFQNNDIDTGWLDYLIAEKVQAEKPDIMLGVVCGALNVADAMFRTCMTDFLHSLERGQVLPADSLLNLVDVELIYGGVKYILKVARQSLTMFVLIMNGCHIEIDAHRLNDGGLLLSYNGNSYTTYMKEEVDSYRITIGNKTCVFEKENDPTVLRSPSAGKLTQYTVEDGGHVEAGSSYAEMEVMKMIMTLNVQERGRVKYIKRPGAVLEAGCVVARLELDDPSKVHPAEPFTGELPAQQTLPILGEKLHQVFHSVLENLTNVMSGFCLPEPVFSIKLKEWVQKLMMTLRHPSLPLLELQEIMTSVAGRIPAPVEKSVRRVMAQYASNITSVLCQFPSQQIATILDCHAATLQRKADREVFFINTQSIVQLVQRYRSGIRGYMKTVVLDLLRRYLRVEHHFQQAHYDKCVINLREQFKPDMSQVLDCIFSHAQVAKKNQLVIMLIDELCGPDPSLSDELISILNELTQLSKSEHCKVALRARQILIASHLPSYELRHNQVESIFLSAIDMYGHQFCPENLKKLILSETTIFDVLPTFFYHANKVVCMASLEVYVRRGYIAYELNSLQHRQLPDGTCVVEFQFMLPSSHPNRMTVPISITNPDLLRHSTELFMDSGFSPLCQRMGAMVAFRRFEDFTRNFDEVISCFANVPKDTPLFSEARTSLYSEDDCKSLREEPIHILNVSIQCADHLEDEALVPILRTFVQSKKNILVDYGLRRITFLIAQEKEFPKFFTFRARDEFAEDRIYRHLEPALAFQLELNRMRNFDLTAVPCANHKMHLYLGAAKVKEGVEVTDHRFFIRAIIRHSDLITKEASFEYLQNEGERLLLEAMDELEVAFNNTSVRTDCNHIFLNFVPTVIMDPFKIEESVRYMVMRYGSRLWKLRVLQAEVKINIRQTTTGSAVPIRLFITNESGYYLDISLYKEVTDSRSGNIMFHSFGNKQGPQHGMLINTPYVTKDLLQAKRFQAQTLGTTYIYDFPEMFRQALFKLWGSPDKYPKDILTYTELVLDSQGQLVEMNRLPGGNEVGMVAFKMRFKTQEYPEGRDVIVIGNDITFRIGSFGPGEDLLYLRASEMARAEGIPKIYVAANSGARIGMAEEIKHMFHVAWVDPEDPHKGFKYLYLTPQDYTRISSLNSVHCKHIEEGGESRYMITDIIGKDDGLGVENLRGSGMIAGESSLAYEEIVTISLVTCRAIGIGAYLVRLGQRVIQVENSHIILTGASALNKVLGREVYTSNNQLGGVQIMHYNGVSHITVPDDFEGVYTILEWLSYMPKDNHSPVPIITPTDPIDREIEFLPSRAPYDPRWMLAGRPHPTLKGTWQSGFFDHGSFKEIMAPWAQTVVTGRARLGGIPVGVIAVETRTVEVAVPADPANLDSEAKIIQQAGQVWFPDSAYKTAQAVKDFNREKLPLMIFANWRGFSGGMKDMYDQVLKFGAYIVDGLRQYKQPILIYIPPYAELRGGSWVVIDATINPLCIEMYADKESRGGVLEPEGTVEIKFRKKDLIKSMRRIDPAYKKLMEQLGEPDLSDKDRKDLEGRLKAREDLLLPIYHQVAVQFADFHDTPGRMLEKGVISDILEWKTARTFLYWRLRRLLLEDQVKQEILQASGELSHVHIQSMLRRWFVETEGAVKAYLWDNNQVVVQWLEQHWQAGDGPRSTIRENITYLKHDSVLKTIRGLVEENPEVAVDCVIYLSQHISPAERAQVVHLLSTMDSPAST

Row | Structure (SMILES) | IC50 (recombinant human ACC2) | IC50 (recombinant human ACC1) | Amount of compound remained, Rat [1] | Amount of compound remained, Human [2] | Plasma triglyceride concentration (NAFLD patients; phase II study over 12 weeks) | platelet concentration (healthy subjects) | Plasma triglyceride concentration (NAFLD patients)
1 | CC(=O)N[C@@H](C)CO[C@H]1CC[C@H](Oc2nc3c(F)cc(OC4CCC4)cc3n2C)CC1 [Compound I-1] | – | 320 nM | – | – | – | – | –
2 | Cn1c(O[C@H]2CC[C@H](OC[C@H](CF)NC(N)=O)CC2)nc2c(F)cc(OC3CC3)cc21 [Compound I-5] | 8.9 nM | 6900 nM | 83.4% | 98.9% | – | – | –
3 | CC(=O)N[C@@H](C)CO[C@H]1CC[C@H](Oc2nc3c(F)cc(OC4CC4)cc3n2C)CC1 [Compound I-15] | 3.8 nM | 1700 nM | 76.2% | 80.2% | – | – | –
4 | CC(=O)N[C@@H](CF)CO[C@H]1CC[C@H](Oc2nc3c(F)cc(OC4CC4)cc3n2C)CC1 [Compound I-4] | 4.7 nM | 2700 nM | 87.3% | 93.4% | – | – | –
5 | COc1ccccc1[C@H](Cn1c(=O)n(C(C)(C)C(=O)O)c(=O)c2c(C)c(-c3ncco3)sc21)OC1CCOCC1 [firsocostat] | – | – | – | – | elevated plasma triglyceride concentration | – | –
6 | C[C@@H](CCC1OCC(Oc2nc3c(F)cc(OCC(F)F)c(F)c3n2C)CO1)NC(N)=O (stereo partly drawn) [Compound I-11] | 9.6 nM | 7000 nM | 94.5% | 95.8% | – | – | –
7 | C[C@@H](CO[C@H]1CC[C@H](Oc2nc3c(Cl)cc(OC4CC4)cc3n2C)CC1)NC(N)=O [Compound I-8] | 17 nM | 6200 nM | 85.4% | 83.6% | – | – | –
8 | Cc1nc2ccc(C(=O)N3CCC4(CC3)CC(=O)c3c(cnn3C(C)C)C4)cc2[nH]1 [PF-05175157] | – | – | – | – | – | reduced a platelet concentration | –
9 | CC(=O)N[C@@H](C)CO[C@H]1CC[C@H](Oc2nc3c(Cl)cc(OC4CC4)cc3n2C)CC1 [Compound I-3] | – | 2800 nM | 82.6% | 80.3% | – | – | –
10 | COc1cc(C(=O)N2CCC3(CC2)CC(=O)c2cc(-c4cncc(C(=O)O)c4)ccc2O3)cc2c1c(C)cn2C1CC1 [MK-4074] | – | – | – | – | – | – | elevated plasma triglyceride concentration

Second part, led by results:

Row | IC50 (recombinant human ACC2) | IC50 (recombinant human ACC1) | Amount of compound remained, Rat [1] | Amount of compound remained, Human [2] | Structure (SMILES) | Plasma triglyceride concentration (NAFLD patients; phase II study over 12 weeks) | platelet concentration (healthy subjects) | Plasma triglyceride concentration (NAFLD patients)
11 | 13 nM | 2600 nM | – | – | CC(=O)N[C@@H](C)CC[C@H]1OC[C@H](Oc2nc3c(F)cc(OCC(F)F)c(F)c3n2C)CC1(F)F [Compound I-9] | – | – | –
12 | 10 nM | 2400 nM | – | – | CC(=O)N[C@@H](C)CC[C@H]1OC[C@H](Oc2nc3c(F)cc(OCC(F)F)c(F)c3n2C)C[C@@H]1F [Compound I-2] | – | – | –
13 | 12 nM | 920 nM | 74% | 93.2% | CC(=O)N[C@@H](C)C(F)(F)C[C@H]1CC[C@H](Oc2nc3c(F)cc(OCC(F)F)c(F)c3n2C)CO1 [Compound I-6] | – | – | –
14 | 89 nM | > 100000 nM | – | – | CC(=O)N[C@@H](C)CC(F)(F)[C@@H]1CC[C@@H](Oc2nc3c(F)cc(OCC(F)F)c(F)c3n2C)CO1 [Compound I-10] | – | – | –
15 | 180 nM | 25000 nM | 74.7% | 89.1% | CC(=O)N[C@H](C)C(F)(F)C[C@H]1CC[C@H](Oc2nc3c(F)cc(OCC(F)F)c(F)c3n2C)CO1 [Compound I-7] | – | – | –
16 | 6.6 nM | 2700 nM | 78% | 94.8% | CC(=O)N[C@@H](C)CO[C@H]1CC[C@H](Oc2nc3c(F)cc(OCC(F)F)c(F)c3n2C)CC1 [Compound I-14] | – | – | –
